This passage reports IC50 results from ChEMBL document CHEMBL5727946, “PD-1/PD-L1 inhibitors” (2020).

What is called IC50 is the concentration needed to halve the response being measured. High values mean weaker potency, low ones greater potency.

Each structure is given as a SMILES string. Some results are limits rather than exact numbers.

The assay deals with Programmed cell death protein 1/Programmed cell death 1 ligand 1 (Homo sapiens, UniProt Q15116+Q9NZQ7). Put plainly: PD-1/PD-L1 & CTLA/CD80 Biochemical Protein-Protein Interaction Assay: Compounds were tested in biochemical protein-protein interaction assays to determine if they can specifically block the interaction between the extracellular domains of PD-1/PD-L1 or CTLA/CD80. Binding of the protein pairs is measured using a bead based Amplified Luminescent Proximity Homogeneous Assay (ALPHA) platform. […] Final protein concentration in the assays were 0.3 nM (His tagged PD-L1), 2.5 nM (biotinylated Fc-PD-1), 1 nM (His tagged CTLA4) and 1 nM (biotinylated CD80). The class given is protein-complex assay.
Sequence of Programmed cell death protein 1/Programmed cell death 1 ligand 1 (Q15116 whole entry, the tested form may be a part): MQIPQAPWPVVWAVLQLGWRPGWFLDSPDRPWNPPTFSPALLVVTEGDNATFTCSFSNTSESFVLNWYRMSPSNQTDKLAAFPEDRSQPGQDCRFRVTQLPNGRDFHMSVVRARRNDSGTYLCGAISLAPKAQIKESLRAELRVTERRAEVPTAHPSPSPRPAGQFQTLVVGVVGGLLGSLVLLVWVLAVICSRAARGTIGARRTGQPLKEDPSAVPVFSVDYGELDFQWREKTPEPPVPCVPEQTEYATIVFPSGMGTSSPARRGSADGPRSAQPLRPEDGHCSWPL
Sequence of Programmed cell death protein 1/Programmed cell death 1 ligand 1 (Q9NZQ7 whole entry, the tested form may be a part): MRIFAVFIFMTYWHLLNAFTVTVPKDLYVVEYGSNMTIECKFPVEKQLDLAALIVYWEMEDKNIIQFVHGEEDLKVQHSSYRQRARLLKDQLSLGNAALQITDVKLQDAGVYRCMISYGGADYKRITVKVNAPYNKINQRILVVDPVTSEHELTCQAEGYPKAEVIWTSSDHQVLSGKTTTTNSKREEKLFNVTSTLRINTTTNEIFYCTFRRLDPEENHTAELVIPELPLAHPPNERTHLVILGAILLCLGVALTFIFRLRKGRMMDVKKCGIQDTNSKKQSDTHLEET

As for `COc1nc(-c2cccc(-c3cccc4c3CC[C@@H]4Oc3nc(OC(F)F)c(CN4CC5(C(=O)O)CCC4CC5)cc3Cl)c2Cl)ccc1CNC[C@@H]1CCC(=O)N1`, the concentration for half-maximal inhibition (IC50) was found to be 0.169 nM. With `COc1nc(-c2cccc(-c3cccc4c3CC[C@@H]4Oc3nc(OCc4cncc(C#N)c4)c(CN4CC[C@H](C(=O)O)C4)cc3Cl)c2Cl)ccc1CNC[C@@H]1CCC(=O)N1`, the concentration for half-maximal inhibition (IC50) was no more than 0.064 nM. Then `COc1nc(-c2cccc(-c3cccc4c3CC[C@@H]4Oc3nc(OC)c(CN4CC(C(=O)NS(=O)(=O)C(F)F)C4)cc3Cl)c2Cl)ccc1CNC[C@@H]1CCC(=O)N1`, with 0.199 nM; and `COc1nc(-c2cccc(-c3cccc4c3CC[C@@H]4Oc3nc(OC)c(CN4CCC[C@@]4(C)C(=O)O)cc3Cl)c2Cl)ccc1CNC[C@@H]1CCC(=O)N1`, with no more than 0.064 nM. Then `COC(=O)[C@@H]1CCN(Cc2cc(Cl)c(O[C@H]3CCc4c(-c5cccc(-c6ccc(CNC[C@@H]7CCC(=O)N7)c(OC)n6)c5Cl)cccc43)nc2OC)C1`, with 3.9 nM; and `CCOc1nc(O[C@H]2CCc3c(-c4cccc(-c5ccc(CNC[C@@H]6CCC(=O)N6)c(OC)n5)c4Cl)cccc32)c(Cl)cc1CN1CC2(C(=O)O)CCC1CC2`, with no more than 0.064 nM. Compound `COc1nc(-c2cccc(-c3cccc4c3CC[C@@H]4Oc3nc(OCc4cncc(F)c4)c(CN4CC5(C(=O)O)CCC4CC5)cc3Cl)c2Cl)ccc1CNC[C@@H]1CCC(=O)N1` had a half-maximal inhibitory concentration (IC50) of no more than 0.064 nM. Then `COc1nc(-c2cccc(-c3cccc4c3CC[C@@H]4Oc3nc(OCc4cncc(Cl)c4)c(CNC4(C(=O)O)CC4)cc3C(F)(F)F)c2Cl)ccc1CNC[C@@H]1CCC(=O)N1`, with 0.101 nM; and `COc1nc(-c2cccc(-c3cccc4c3CC[C@@H]4Oc3nc(OC)c(CN4CC(C(=O)NS(C)(=O)=O)C4)cc3Cl)c2Cl)ccc1CN1CC(C)(O)C1`, with 0.088 nM.

`COc1nc(-c2cccc(-c3cccc4c3CC[C@@H]4Oc3nc(OC)c(CNC4(C(=O)O)CCOCC4)cc3Cl)c2Cl)ccc1CNC[C@@H]1CCC(=O)N1`: the concentration for half-maximal inhibition (IC50) is no more than 0.064 nM. Under `COc1nc(-c2cccc(-c3cccc4c3CC[C@@H]4Oc3nc(OC)c(CNC4(C(=O)O)CCC4)cc3Cl)c2Cl)ccc1CNC[C@@H]1CCC(=O)N1` stands no more than 0.064 nM. Then `CCS(=O)(=O)NC(=O)[C@@H]1CCN(Cc2cc(Cl)c(O[C@H]3CCc4c(-c5cccc(-c6ccc(CNC[C@@H]7CCC(=O)N7)c(OC)n6)c5Cl)cccc43)nc2OC)C1`, with 0.117 nM; and `CCOc1nc(O[C@H]2CCc3c(-c4cccc(-c5ccc(CNC[C@@H]6CCC(=O)N6)c(OC)n5)c4Cl)cccc32)c(Cl)cc1CN1CC[C@H](C(=O)O)C1`, with no more than 0.064 nM.

`COc1nc(-c2cccc(-c3cccc4c3CC[C@@H]4Oc3nc(OC)c(CN4CCC[C@H]4C(=O)O)cc3Cl)c2Cl)ccc1CNC[C@@H]1CCC(=O)N1` displayed a concentration for half-maximal inhibition (IC50) of no more than 0.064 nM. Then `COc1nc(-c2cccc(-c3cccc4c3CC[C@@H]4Oc3nc(OC)c(CN4CC(C(=O)O)C4)cc3Cl)c2Cl)ccc1CN1CC(C)(O)C1`, with no more than 0.064 nM; and `COc1nc(-c2cccc(-c3cccc4c3CC[C@@H]4Oc3nc(OC)c(CN4CCC[C@@H]4C(=O)O)cc3Cl)c2Cl)ccc1CNC[C@@H]1CCC(=O)N1`, with no more than 0.064 nM.

Compound `CCOC(=O)C1CN(Cc2cc(Cl)c(O[C@H]3CCc4c(-c5cccc(-c6ccc(CNC[C@@H]7CCC(=O)N7)c(OC)n6)c5Cl)cccc43)nc2OC)C1` showed an IC50 of 1.99 nM. Under `COc1nc(-c2cccc(-c3cccc4c3CC[C@@H]4Oc3nc(OC)c(CN4CCC[C@@H](C(=O)NS(C)(=O)=O)C4)cc3Cl)c2Cl)ccc1CNC[C@@H]1CCC(=O)N1` stands 0.068 nM.

As to `COc1nc(-c2cccc(-c3cccc4c3CC[C@@H]4Oc3nc(OCC#N)c(CN4CC5(C(=O)O)CCC4CC5)cc3Cl)c2Cl)ccc1CNC[C@@H]1CCC(=O)N1`, the half-maximal inhibitory concentration (IC50) is no more than 0.064 nM. On to `COc1nc(-c2cccc(-c3cccc4c3CC[C@@H]4Oc3nc(OCc4cncc(C#N)c4)c(CN4CC[C@@H](C(=O)O)C4)cc3Cl)c2Cl)ccc1CNC[C@@H]1CCC(=O)N1`, for which the IC50 is no more than 0.064 nM.

In turn, `COc1nc(-c2cccc(-c3cccc4c3CC[C@@H]4Oc3nc(OC)c(CN4CC[C@@H](C(=O)NS(=O)(=O)C(F)F)C4)cc3Cl)c2Cl)ccc1CNC[C@@H]1CCC(=O)N1` displayed a half-maximal inhibitory concentration (IC50) of 0.152 nM. Under `COc1nc(O[C@H]2CCc3c(-c4cccc(-c5cnc([C@@H](C)NC[C@H]6CCC(=O)N6)c(OC)n5)c4Cl)cccc32)c(Cl)cc1CN1CC[C@@H](C(=O)O)C1` stands no more than 0.064 nM. Then `COc1nc(-c2cccc(-c3cccc4c3CC[C@@H]4Oc3nc(OC)c(CN4CC[C@@H](C(=O)NS(C)(=O)=O)C4)cc3Cl)c2Cl)ccc1CN1CC(C)(O)C1`, with no more than 0.064 nM; and `COc1nc(-c2cccc(-c3cccc4c3CC[C@@H]4Oc3nc(OC)c(CN4CC[C@H](C(=O)NS(C)(=O)=O)C4)cc3Cl)c2Cl)ccc1CNC[C@@H]1CCC(=O)N1`, with no more than 0.064 nM. Under `COc1nc(-c2cccc(-c3cccc4c3CC[C@@H]4Oc3nc(OC)c(CN4CC[C@@H](C(=O)NS(C)(=O)=O)C4)cc3Cl)c2Cl)ccc1CNC[C@@H]1CCC(=O)N1` stands no more than 0.064 nM; under `COc1nc(-c2cccc(-c3cccc4c3CC[C@@H]4Oc3nc(OC)c(CN[C@@H]4CCC[C@@H]4C(=O)O)cc3Cl)c2Cl)ccc1CNC[C@@H]1CCC(=O)N1`, no more than 0.064 nM. Turning to `COc1nc(-c2cccc(-c3cccc4c3CC[C@@H]4Oc3nc(OCc4cncc(C#N)c4)c(CN4CC5(C(=O)O)CCC4CC5)cc3Cl)c2Cl)ccc1CNC[C@@H]1CCC(=O)N1`, the IC50 is no more than 0.064 nM. Consider `COc1nc(-c2cccc(-c3cccc4c3CC[C@@H]4Oc3nc(OC)c(CNC4(C(=O)O)CC4)cc3Cl)c2Cl)ccc1CNC[C@@H]1CCC(=O)N1`, for which the half-inhibitory concentration (IC50) was no more than 0.064 nM.
